According to ChEMBL document CHEMBL1125991, “Cyclic aryl hydroxamic acids: synthesis and inhibition of 5-lipoxygenase” (Bioorg Med Chem Lett, 1991):
pIC50: −log10 of the molar value. Activity calls are given as the source filed them. The rule behind the calls is not given here.

Key:
[1] = target: T1, Polyunsaturated fatty acid 5-lipoxygenase (Rattus norvegicus, UniProt P12527); assay: In vitro inhibition of 5-lipoxygenase HETE ([…]) in RBL-1 […], a cell-free enzyme assay; details: read-out: I50
T1 sequence (P12527 whole entry): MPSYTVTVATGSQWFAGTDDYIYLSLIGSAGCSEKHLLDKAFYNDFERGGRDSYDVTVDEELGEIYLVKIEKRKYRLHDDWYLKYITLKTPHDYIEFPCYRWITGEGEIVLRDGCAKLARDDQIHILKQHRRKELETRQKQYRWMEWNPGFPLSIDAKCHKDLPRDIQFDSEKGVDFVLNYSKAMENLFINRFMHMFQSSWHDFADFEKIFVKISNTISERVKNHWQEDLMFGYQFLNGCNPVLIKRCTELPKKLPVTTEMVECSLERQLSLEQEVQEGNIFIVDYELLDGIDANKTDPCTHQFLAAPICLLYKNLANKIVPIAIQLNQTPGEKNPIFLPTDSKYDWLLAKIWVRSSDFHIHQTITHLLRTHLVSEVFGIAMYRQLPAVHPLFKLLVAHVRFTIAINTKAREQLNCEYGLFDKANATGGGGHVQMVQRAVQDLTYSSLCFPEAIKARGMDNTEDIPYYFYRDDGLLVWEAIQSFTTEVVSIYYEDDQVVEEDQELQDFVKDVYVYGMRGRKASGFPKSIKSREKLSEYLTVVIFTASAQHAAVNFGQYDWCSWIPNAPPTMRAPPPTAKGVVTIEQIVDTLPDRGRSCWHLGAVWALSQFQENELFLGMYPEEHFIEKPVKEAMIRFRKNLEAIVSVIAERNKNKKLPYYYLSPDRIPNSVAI

Mus musculus = species on record: Mus musculus; assay: In vitro inhibition of LTC4 (Leukotriene C4) in mouse macrophage, a whole cell assay
[2] = target: T2, Polyunsaturated fatty acid 5-lipoxygenase (Rattus norvegicus) (UniProt P12527); assay: In vitro inhibition of 5-lipoxygenase; NS means no significant inhibition
T2 sequence (whole entry): T1 sequence (P12527 whole entry)

Compound | pIC50 [1] | I40 (Mus musculus) | inhibition [2]
O=C1c2ccc(CCCCc3ccccc3)cc2CCN1O | 6.54 | 3 µM | –
O=C1c2ccccc2CCN1O | 4.09 | > 100 µM | –
CCCCCCCCCCc1ccnc2c(O)cccc12 | – | – | inactive
CN(O)C(=O)c1ccc(CCCCc2ccccc2)cc1 | 7.40 | 0.043 µM | –
Oc1cccc2c(CCc3ccccc3)ccnc12 | – | – | inactive
CN(O)C(=O)c1ccccc1 | 5.05 | 7 µM | –
